Molecular target: T1, recombinant expressed rat FAAH (Rattus norvegicus, UniProt P97612)
T1 construct: expressed in transfected cells; host or cells: COS-7 cells, transient, pcDNA3; dounce-homogenised cell extract
T1 sequence (P97612 1-579): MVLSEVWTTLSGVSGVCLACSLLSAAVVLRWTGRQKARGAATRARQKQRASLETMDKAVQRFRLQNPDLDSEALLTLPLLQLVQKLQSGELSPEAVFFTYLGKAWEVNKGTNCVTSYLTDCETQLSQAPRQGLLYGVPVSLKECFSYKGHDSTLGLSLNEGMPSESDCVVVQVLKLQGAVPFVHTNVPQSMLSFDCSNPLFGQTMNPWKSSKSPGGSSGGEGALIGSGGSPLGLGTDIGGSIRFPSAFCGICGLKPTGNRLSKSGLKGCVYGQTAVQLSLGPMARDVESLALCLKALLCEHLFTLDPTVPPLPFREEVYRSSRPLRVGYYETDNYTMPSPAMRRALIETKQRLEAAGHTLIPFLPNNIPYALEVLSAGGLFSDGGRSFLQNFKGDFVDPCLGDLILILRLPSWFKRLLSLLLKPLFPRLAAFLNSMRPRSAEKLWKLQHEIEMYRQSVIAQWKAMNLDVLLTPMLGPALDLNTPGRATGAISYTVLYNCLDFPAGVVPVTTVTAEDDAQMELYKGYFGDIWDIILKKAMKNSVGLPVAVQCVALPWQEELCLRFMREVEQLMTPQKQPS
Experiment: FAAH hydrolysis assays with 14C-labeled fatty acid amide substrates (TLC, scintillation counting)
Format: biochemical
Details: for Rate of Hydrolysis: 35 μg transfected COS-7 cell protein, 5 minutes, 37° C.
Procedure: Therefore, COS-7 cells transfected with the rat FAAH cDNA were assayed for anandamide hydrolase activity. To assess the enzymatic activity of the expressed recombinant fatty acid amide hydrolases of this invention on labeled anandamide, the following enzymatic assay was performed. ^14C-anandamide was synthesized as follows: 12.5 μCi (specific activity of 50 μCi/μM) of ^14C arachidonic acid (Moravek Biochemicals) was dissolved in 100 μl CH2Cl2, cooled to 0° C., and treated with excess oxalyl chloride. The reaction mixture was stirred at 25° C. for 6 hours, after which time the solvent was evaporated. The remaining residue was cooled to 0° C., treated with a large excess of ethanolamine, and stirred at 25° C. for 15 minutes. The reaction mixture was then partitioned between ethyl acetate and 2 M HCl, and the organic layer was washed with water and then evaporated to dryness. The resulting ^14C-anandamide was diluted with unlabeled anandamide to a final specific activity of 5 μCi/μM in ethanol. Approximately 1 μCi of ^14C-anandamide and 20 μl of dounce homogenized COS-7 cell extract were used for each anandamide hydrolase assay as detailed above for the oleamide hydrolase assays. Briefly, FAAH hydrolysis assays were conducted in triplicate with 100 μM substrate, 35 μg of rat transfected COS-7 cell protein for 5 minutes at 37° C. (except in the case of stearic amide, where due to low solubility, 20 μM substrate comparison to oleamide were conducted). Products were separated on TLC as described previously, scraped into scintillation fluid, and radioactivity was quantitated by scintillation counting. Substrate hydrolysis in the presence of equal amounts of untransfected COS-7 cell protein extract served as background control in all cases and was substracted from FAAH hydrolysis rates to give the data as presented below.
To further assess the substrate specificity spectrum of enyzmatic hydolytic activity of the recombinant expressed proteins of this invention, other ^14C-labeled fatty acid amides were synthesized as described in Section B6 and above for ^14C-oleamide, with the exception of anandamide as described.
Where indicated in the table the anandamide and oleamide hydrolysis rates are considered to be 100% of FAAH activity to which other fatty acid amide hydrolysis rates are compared.

**Q.** For `CCCCCCCC/C=C\CCCCCCCC(N)=O` [cis-9,10-octadecenoamide, Cis-9,10-octadecenoamide], which “rate difference between hydrolysis of oleamide and stearic amide” value is on record?
**A.** The value was “nearly twenty fold”.

**Q.** What about the “% of FAAH activity (oleamide hydrolysis rate = 100%)” value (20 μM substrate) of the same molecule?
**A.** The value was 100%.

**Q.** And the “Rate of Hydrolysis” value (20 μM substrate)?
**A.** The value was 41 ± 2 nmol/min/mg.

**Q.** And the “% of FAAH activity (anandamide hydrolysis rate = 100%)” value (100 μM substrate)?
**A.** The value was 72.6%.

**Q.** What about the “Rate of Hydrolysis” value (100 μM substrate) of the same molecule?
**A.** The value was 242 ± 20 nmol/min/mg.
